Data taken from the NIST ThermoML archive (doi:10.1021/je030177j).

Test: mn = molality of the nth substance listed, in mol/kg
Settings: Liquid, Capillary tube (Ostwald / Ubbelohde) method

O=S(=O)([O-])[O-].[Li+].[Li+] [lithium sulfate] + O
viscosity [mPa·s]
Settings | 10000 kPa | 20000 kPa | 30000 kPa
415.76 K, m1 = 0.885 | – | – | 0.2944
417.42 K, m1 = 0.28 | 0.2175 | 0.2199 | 0.2227
418.18 K, m1 = 0.56 | 0.2443 | 0.2469 | 0.2497
420.67 K, m1 = 0.1 | 0.198 | 0.201 | 0.2031
423.55 K, m1 = 0.28 | 0.208 | 0.2106 | 0.2133
424.05 K, m1 = 0.885 | 0.2687 | 0.2721 | 0.2756
424.55 K, m1 = 0.56 | 0.233 | 0.2359 | 0.239
430.26 K, m1 = 0.885 | 0.2564 | 0.2601 | 0.264
430.73 K, m1 = 0.28 | 0.1975 | 0.1999 | 0.2024
431.72 K, m1 = 0.1 | 0.1829 | 0.1849 | 0.1871
431.83 K, m1 = 0.56 | 0.2212 | 0.2231 | 0.2251
437.24 K, m1 = 0.56 | 0.213 | 0.2154 | 0.2185
439.37 K, m1 = 0.885 | 0.2402 | 0.244 | 0.2479
440.04 K, m1 = 0.28 | 0.1858 | 0.1885 | 0.191
446.35 K, m1 = 0.56 | 0.2 | 0.203 | 0.206
449.15 K, m1 = 0.885 | 0.2248 | 0.2283 | 0.2318
449.35 K, m1 = 0.28 | 0.175 | 0.1776 | 0.1803
449.55 K, m1 = 0.1 | 0.163 | 0.1654 | 0.168
452.17 K, m1 = 0.56 | 0.1927 | 0.1957 | 0.1984
458.12 K, m1 = 0.885 | 0.2109 | 0.2139 | 0.2179
458.17 K, m1 = 0.28 | 0.1658 | 0.1682 | 0.1704
459.12 K, m1 = 0.56 | 0.1843 | 0.1878 | 0.19
459.89 K, m1 = 0.1 | 0.1532 | 0.1553 | 0.1577
462.13 K, m1 = 0.28 | 0.162 | 0.1649 | 0.1674
466.79 K, m1 = 0.885 | 0.2003 | 0.2038 | 0.2071
468.13 K, m1 = 0.56 | 0.175 | 0.1787 | 0.1813
468.74 K, m1 = 0.28 | 0.1558 | 0.1582 | 0.1612
468.97 K, m1 = 0.1 | 0.1454 | 0.1477 | 0.15
473.25 K, m1 = 0.1 | 0.1421 | 0.1467 | 0.149
475.55 K, m1 = 0.28 | 0.15 | 0.1528 | 0.1555
476.95 K, m1 = 0.885 | 0.1885 | 0.192 | 0.1956
479.55 K, m1 = 0.56 | 0.1637 | 0.1668 | 0.1699
482.35 K, m1 = 0.1 | 0.1352 | 0.1378 | 0.1404
485.13 K, m1 = 0.885 | 0.1797 | 0.1835 | 0.1871
485.17 K, m1 = 0.28 | 0.1424 | 0.1452 | 0.1475
490.35 K, m1 = 0.1 | 0.1297 | 0.1322 | 0.1354
490.76 K, m1 = 0.56 | 0.1538 | 0.1567 | 0.1595
492.49 K, m1 = 0.885 | 0.1725 | 0.1761 | 0.179
495.14 K, m1 = 0.28 | 0.1352 | 0.1377 | 0.14
500.43 K, m1 = 0.885 | 0.1653 | 0.1688 | 0.1722
501.3 K, m1 = 0.1 | 0.1228 | 0.125 | 0.1275
509.17 K, m1 = 0.885 | 0.158 | 0.1614 | 0.1649
510.12 K, m1 = 0.56 | 0.1391 | 0.142 | 0.1455
510.93 K, m1 = 0.1 | 0.1172 | 0.1199 | 0.1235
515.27 K, m1 = 0.28 | 0.1224 | 0.1247 | 0.1271
517.75 K, m1 = 0.885 | 0.1513 | 0.155 | 0.1586
521.75 K, m1 = 0.1 | 0.1115 | 0.1143 | 0.117
522.75 K, m1 = 0.56 | 0.1308 | 0.1341 | 0.1373
525.95 K, m1 = 0.28 | 0.1166 | 0.1196 | 0.1225
526.12 K, m1 = 0.885 | 0.1453 | 0.1491 | 0.1527
530.53 K, m1 = 0.1 | 0.1072 | 0.1097 | 0.1122
532.85 K, m1 = 0.56 | 0.125 | 0.1281 | 0.131
538.24 K, m1 = 0.885 | 0.1372 | 0.1408 | 0.1443
540.08 K, m1 = 0.28 | 0.1096 | 0.1125 | 0.1156
541.04 K, m1 = 0.1 | 0.1024 | 0.1052 | 0.1087
547.35 K, m1 = 0.1 | 0.0998 | 0.1027 | 0.1055
550.72 K, m1 = 0.885 | 0.1297 | 0.1335 | 0.1372
551.24 K, m1 = 0.56 | 0.1151 | 0.1184 | 0.1214
560.12 K, m1 = 0.28 | 0.1011 | 0.104 | 0.1075
560.18 K, m1 = 0.885 | 0.1246 | 0.1282 | 0.1318
560.43 K, m1 = 0.1 | 0.0948 | 0.0977 | 0.0999
560.72 K, m1 = 0.56 | 0.1106 | 0.1132 | 0.115
569.15 K, m1 = 0.1 | 0.0917 | 0.0945 | 0.0977
572.05 K, m1 = 0.56 | 0.1056 | 0.1092 | 0.1126
573.45 K, m1 = 0.28 | 0.0962 | 0.0995 | 0.1025
574.55 K, m1 = 0.885 | 0.1176 | 0.1217 | 0.1255
574.75 K, m1 = 0.1 | 0.0897 | 0.0928 | 0.0957
